Assays:
IGROV1 = assay: NCI-60 single dose screen, sulforhodamine B; type: cell-based, human; conditions: Ovarian cancer IGROV1; single dose 10^−5 M
Experimental: (§1) In this research, all of the newly synthesised quinazolinones were subjected to in vitro anticancer screening by the National Cancer Institute (USA) against 60 different human cell lines including leukaemia, non-small cell lung cancer, colon cancer, CNS cancer, melanoma, ovarian cancer, renal cancer, prostate cancer, and breast cancer. The tested compounds were evaluated at a single dose (10^−5 M). […] Regarding the benzenesulfonamide counterparts, the introduction of an electron-withdrawing group on the benzenesulfonamide moiety increased the inhibitory activity on the glioblastoma cell line SNB-75 as depicted by the chloro derivative 5c (GI% = 63.09) which was higher than that of the unsubstituted derivative 5a (GI% = 40.06) and the methyl derivative 5b (GI% = 33.03).
(§2) 1. Cytotoxicity screening against a panel of 60 human tumor cell lines
(§3) All the compounds were selected for NCI-60 Human Tumor Cell Lines Screen by the Developmental Therapeutics Program (DTP) at the National Cancer Institute (NCI), Maryland, USA. The operation of this screen utilizes 60 different human tumor cell lines, representing leukemia, non-small-cell lung cancer, colon cancer, CNS cancer, melanoma, ovarian cancer, renal cancer, prostate cancer and breas t cancer.
(§4) The compounds were supplied as dry powder and a single concentration is tested in all 60 cell lines at a single dose of 10 µM solution in dimethyl sulfoxide (DMSO) using Sulforhodamine B assay. Briefly, cells are seeded in 96 well plates at an appropriate density and incubated for 1 day. After 1 day, some of the plates are processed to determine the density time zero. To the remaining plates, compounds are added at 10 µM concentration. Plates are incubated a further 2 days, then fixed and staine d with sulphorhodamine B. Growth inhibition is calculated relative to cells without drug treatment and the time zero control. The use of a time zero control allows the determination of cell kill as well as net growth inhibition.
(§5) 2. Detection of IC50 against MDA-MB-435, SNB-75 cell lines and normal cell line WI -38.
(§6) Antiproliferative activities of 5c in melanoma cell line MDA-MB-435, glioblastoma cell line SNB-75 and normal cell line WI -38 and that of 8a in melanoma cell line MDA-MB-435 and normal cell line WI-38 were measured spectrophotometrically using in vitro MTT based toxicology assay kit (catalog no. M -5655, M-8910) (Sigma Aldrich), according to the manufacturer’s protocol. The three examined cell lin es were obtained from American Type Culture Collection (ATCC). Briefly, cells were platted (cells density 1.2 – 1.8 × 10,000 cells/well) in a volume of 100 µl complete growth medium + 100 μl of the tested compound per well in a 96-well plate for 48 h before the MTT assay. The cultures were removed from incubator into laminar flow hood then each vial of MTT [M-5655] should be reconstituted with 3 ml of medium or balanced salt solution without phenol red and serum. Reconstituted MTT was added in an amount equal to […]

HL-60(TB) = assay: NCI-60 single dose screen, sulforhodamine B; type: cell-based, human; conditions: Leukaemia HL-60(TB); single dose 10^−5 M
Experimental: as §1, §2, §3, §4, §5, §6

MCF7 = assay: NCI-60 single dose screen, sulforhodamine B; type: cell-based, human; conditions: Breast cancer MCF7; single dose 10^−5 M
Experimental: as §1, §2, §3, §4, §5, §6

MDA-MB-468 = assay: NCI-60 single dose screen, sulforhodamine B; type: cell-based, human; conditions: Breast cancer MDA-MB-468; single dose 10^−5 M
Experimental: as §1, §2, §3, §4, §5, §6

[1] = tested on: normal fibroblast cells WI-38; assay: Cytotoxic activity in normal cells, MTT assay; type: cell-based; conditions: Homo sapiens, WI-38 normal cells, 48 h, read-out: IC50 (µM) ± SD WI-38
Experimental: as §5
as §6, with “96-well” for “96-well plate for 48 h before the MTT assay. The cultures were removed from incubator into laminar flow hood then each vial of MTT [M-5655] should be reconstituted with 3 ml of medium or balanced salt solution without phenol red and serum. Reconstituted MTT was added in an amount equal to”
(§7) salt solution without phenol red and serum.

CDK2 = target: T1, CDK2 (Homo sapiens, UniProt P24941); assay: CDK2 inhibition assay, colorimetric 96-well kit (BPS Bioscience); type: biochemical; conditions: in vitro kinase inhibition; read-out: IC50 (µM) ± SD against CDK2
T1 construct: purchased BPS Bioscience 79599
Experimental: It was reported that CDK2 is overexpressed in melanoma[44]^,[45].
CDK2 enzyme inhibition activity was measured for the quinazolinones 5c and 8a using a colorimetric 96-well CDK2 assay kit (BPS Bioscience) (catalog no. 79599), according to the manufacturer's protocol. All the IC50 values were calculated using GraphPad Prism 7.0 Software.
Figure S1. The pharmacokinetic profile of compound 5c using SwissADME web server.
(1 picture or pasted object on this page, not shown here)

[2] = tested on: melanoma cell line MDA-MB-435; assay: Detection of IC50, MTT assay; type: cell-based; conditions: Homo sapiens, read-out: IC50 (µM)±SD, 50% inhibition of cell viability, Melanoma MDA-MB-435, 48 h
Experimental: as §5
as §6, with “96-well” for “96-well plate for 48 h before the MTT assay. The cultures were removed from incubator into laminar flow hood then each vial of MTT [M-5655] should be reconstituted with 3 ml of medium or balanced salt solution without phenol red and serum. Reconstituted MTT was added in an amount equal to”
as §7

SK-OV-3 = assay: NCI-60 single dose screen, sulforhodamine B; type: cell-based, human; conditions: Ovarian cancer SK-OV-3; single dose 10^−5 M
Procedure, shortened: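 Compounds were tested at a single 10 µM dose (DMSO solution) after cells had been seeded and grown for 1 day. Following 2 further days of exposure, cells were fixed and stained with sulforhodamine B. Growth inhibition is relative to untreated cells and a time-zero control.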

SMILES | GI% at 10^−5 M (IGROV1) | GI% at 10^−5 M (HL-60(TB)) | GI% at 10^−5 M (MCF7) | GI% at 10^−5 M (MDA-MB-468) | IC50 [1] | IC50 (CDK2) | IC50 [2] | GI% at 10^−5 M (SK-OV-3)
COc1cc(C=Nn2c(COc3ccccc3)nc3ccccc3c2=O)ccc1O [Compound 6a, 3-((4-hydroxy-3-methoxybenzylidene)amino)-2-(phenoxymethyl)quinazolin-4(3H)-one] | – (– means GI < 10%) | – (– means GI < 10%) | 22.94% | – (– means GI < 10%) | – | – | – | –
COc1ccc(NC(=O)CNn2c(COc3ccccc3)nc3ccccc3c2=O)cc1 [Compound 4b, N-(4-methoxyphenyl)-2-((4-oxo-2-(phenoxymethyl)quinazolin-3(4H)-yl)amino)acetamide] | 6.78% | – (– means GI < 10%) | 13.20% | – (– means GI < 10%) | – | – | – | –
O=c1c2ccccc2nc(COc2ccccc2)n1NS(=O)(=O)c1ccc(Cl)cc1 [Compound 5c, 4-chloro-N-(4-oxo-2-(phenoxymethyl)quinazolin-3(4H)-yl)benzenesulfonamide] | 38.26% | 24.32% | 58.11% | 59.61% | 62.5 ± 3.5 µM | 0.63 ± 0.022 µM | 3.03 ± 0.38 µM | –
O=C(CN1CCN(c2ccccc2)CC1)Nn1c(COc2ccccc2)nc2ccccc2c1=O [Compound 8b, N-(4-oxo-2-(phenoxymethyl)quinazolin-3(4H)-yl)-2–(4-phenylpiperazin-1-yl)acetamid] | – (– means GI < 10%) | – (– means GI < 10%) | – (– means GI < 10%) | – (– means GI < 10%) | – | – | – | –
Cc1ccc(S(=O)(=O)Nn2c(COc3ccccc3)nc3ccccc3c2=O)cc1 [Compound 5b, 4-methyl-N-(4-oxo-2-(phenoxymethyl)quinazolin-3(4H)-yl)benzenesulfonamide] | 21.58% | – (– means GI < 10%) | 11.54% | – (– means GI < 10%) | – | – | – | −4.74%
O=c1c2ccccc2nc(COc2ccccc2)n1N=CC=Cc1ccccc1 [Compound 6b, 2-(phenoxymethyl)-3-((3-phenylallylidene)amino)quinazolin-4(3H)-one] | – (– means GI < 10%) | – (– means GI < 10%) | 16.22% | 10.89% | – | – | – | –
O=c1c2ccccc2nc(COc2ccccc2)n1NS(=O)(=O)c1ccccc1 [Compound 5a, N-(4-oxo-2-(phenoxymethyl)quinazolin-3(4H)-yl)benzenesulfonamide] | 16.06% | – (– means GI < 10%) | 14.31% | – (– means GI < 10%) | – | – | – | –
O=C(CNn1c(COc2ccccc2)nc2ccccc2c1=O)Nc1ccccc1 [Compound 4a, 2-((4-oxo-2-(phenoxymethyl)quinazolin-3(4H)-yl)amino)-N-phenylacetamide] | 19.54% | – (– means GI < 10%) | 15.7% | – (– means GI < 10%) | – | – | – | –
CN1CCN(CC(=O)Nn2c(COc3ccccc3)nc3ccccc3c2=O)CC1 [Compound 8a, 2–(4-methylpiperazin-1-yl)-N-(4-oxo-2-(phenoxymethyl)quinazolin-3(4H)-yl)acetamide] | 26.87% | 19.74% | 57.64% | 49.06% | 37.3 ± 2.1 µM | 1.74 ± 0.062 µM | 6.22 ± 0.53 µM | 22.99%
O=C(CNn1c(COc2ccccc2)nc2ccccc2c1=O)Nc1ccc(Cl)cc1 [Compound 4c, N-(4-chlorophenyl)-2-((4-oxo-2-(phenoxymethyl)quinazolin-3(4H)-yl)amino)acetamide] | 19.62% | – (– means GI < 10%) | 10.05% | 11.13% | – | – | – | 4.95%
COc1ccc(N2CCN(CC(=O)Nn3c(COc4ccccc4)nc4ccccc4c3=O)CC2)cc1 [Compound 8c, 2–(4-(4-methoxyphenyl)piperazin-1-yl)-N-(4-oxo-2-(phenoxymethyl)quinazolin-3(4H)-yl)acetamide] | – (– means GI < 10%) | – (– means GI < 10%) | – (– means GI < 10%) | – (– means GI < 10%) | – | – | – | –
